Laboratory results taken from patent publication US5512569A, “Aminoalkyl benzothiazolinones” (Adir et Compagnie, priority 1994, dated 1996).

Test system: catalepsigenic effect
Assay: Investigation into the catalepsigenic effect in rats
Assay type: in vivo, Wistar rats
Conditions: 2 mg.kg^-1, same study conditions (IP, rats, 30-minute interval)
Description: The catalepsigenic effect is investigated in rats via the intraperitoneal route. This test predicts the existence of side effects of extrapyramidal type. 6 groups of Wistar rats received an injection of the compounds of the invention and were then tested for their catalepsigenic activity after a 30-minute interval. Haloperidol is used as reference.

Compound `O=C(CCCN1CCC(O)(c2ccc(Cl)cc2)CC1)c1ccc(F)cc1` [haloperidol] has a catalepsigenic effect of 95%.
